The values that follow come from patent US8642595B2, “Annellated 4-(indazolyl)-1,4-dihydropyridine derivatives and methods of use thereof” (Bayer Intellectual Property GmbH, priority 2008, dated 2014).

Assay [1] has as its target T1, N-terminally His6-tagged recombinant kinase domain of the human c-Met (amino acids 960-1390) (Homo sapiens, UniProt P08581).
T1 construct: kinase domain of the human c-Met (amino acids 960-1390); His6 (N); made in house; host or cells: insect cells (SF21)
Briefly: c-Met receptor tyrosine kinase homogeneous time-resolved fluorescence assay (alternative format). The format is biochemical. As to conditions: HTRF; ATP 10 μM, 30 min at 22° C. The text has this:
c-Met Receptor Tyrosine Kinase Homogeneous Time-Resolved Fluorescence Assay (Alternative Format):
The N-terminally His6-tagged recombinant kinase domain of the human c-Met (amino acids 960-1390), expressed in insect cells (SF21) and purified by Ni-NTA affinity chromatography and consecutive size exclusion chromatography (Superdex 200), is used. Alternatively, commercially available c-Met (Millipore) can be used. As substrate for the kinase reaction, the biotinylated poly-Glu,Tyr (4:1) copolymer (#61GT0BLC, Cis Biointernational, Marcoule, France) is used.
For the assay, 50 nL of a 100-fold concentrated solution of the test compound in DMSO is pipetted into a black low-volume 384-well microtiter plate (Greiner Bio-One, Frickenhausen, Germany). 2 μL of a solution of c-Met in assay buffer [25 mM Hepes/NaOH, pH 7.5; 5 mM MgCl2; 5 mM MnCl2; 2 mM dithiothreitol; 0.1% (v/v) Tween 20 (Sigma); 0.1% (w/v) bovine serum albumin] are added, and the mixture is incubated for 15 min at 22° C. to allow pre-binding of the test compound to the enzyme before the start of the kinase reaction. Then, the kinase reaction is started by the addition of 3 μL of a solution of adenosine triphosphate (ATP, 16.7 μM; final concentration in the 5 μL assay volume is 10 μM) and substrate (2.27 μg/mL, final concentration in the 5 μL assay volume is 1.36 μg/mL˜30 nM) in assay buffer, and the resulting mixture is incubated for a reaction time of 30 min at 22° C. […]
The resulting mixture is incubated for 1 h at 22° C. to allow the binding of the biotinylated phosphorylated peptide to the streptavidine-XLent and the PT66-Eu-chelate. Subsequently, the amount of phosphorylated substrate is evaluated by measurement of the resonance energy transfer from the PT66-Eu-chelate to the streptavidine-XLent. Therefore, the fluorescence emissions at 620 nm and 665 nm after excitation at 350 nm are measured in an HTRF reader, e.g. Rubystar (BMG Lab-technologies, Offenburg, Germany) or Viewlux (Perkin-Elmer). […]
(TR-FRET usually uses a lanthanide donor and a delayed reading to cut background.)

Assay [2] addresses T2, Recombinant human c-Met protein (Homo sapiens, UniProt P08581).
T2 construct: purchased Invitrogen
Briefly: c-Met receptor tyrosine kinase activity assay (NADH read-out). Type of assay: biochemical. To be noted: c-Met 30 nM, ATP 30 μM, 100 min at 32° C. Here is the method:
c-Met Receptor Tyrosine Kinase Activity Assay (NADH Read-Out):
Recombinant human c-Met protein (Invitrogen, Carlsbad, Calif., USA) is used. As substrate for the kinase reaction the peptide KKKSPGEYVNIEFG (JPT, Germany) is used. For the assay, 1 μL of a 51-fold concentrated solution of the test compound in DMSO is pipetted into a white 384-well microtiter plate (Greiner Bio-One, Frickenhausen, Germany). 25 μL of a solution of c-Met (final concentration 30 nM) and pyruvate kinase/lactate dehydrogenase (Roche Diagnostics, Mannheim, Germany; final concentration 8 mg/L) in assay buffer [3-(N-morpholino)propane-sulfonic acid (MOPS), 50 mM, pH 7; MgCl2, 10 mM; bovine serum albumin (BSA), 0.01%; Triton X 100, 0.01%; DTT, 2 mM] are added, and the mixture is incubated for 5 min at room temperature. Then, the kinase reaction is started by the addition of 25 μL of a solution of adenosine triphosphate (ATP, final concentration 30 μM), substrate (final concentration 100 μM), nicotinamide adenine dinucleotide (NADH, final concentration 50 μM) and dithiothreitol (DTT, final concentration 2 mM) in assay buffer, and the resulting mixture is incubated for a reaction time of 100 min at 32° C.
Subsequently, the amount of phosphorylated substrate is evaluated by measurement of the decrease of NADH fluorescence. Therefore, the fluorescence emissions at 465 nm after excitation at 340 nm is measured in a fluorescence reader, e.g. Tecan Ultra (Tecan, Männedorf, Switzerland). The data are normalised (enzyme reaction without inhibitor=0% inhibition; all other assay components but no enzyme=100% inhibition).

As usually defined, the IC50 is the concentration at which inhibition is half-maximal.

T2 sequence (P08581 25-1390): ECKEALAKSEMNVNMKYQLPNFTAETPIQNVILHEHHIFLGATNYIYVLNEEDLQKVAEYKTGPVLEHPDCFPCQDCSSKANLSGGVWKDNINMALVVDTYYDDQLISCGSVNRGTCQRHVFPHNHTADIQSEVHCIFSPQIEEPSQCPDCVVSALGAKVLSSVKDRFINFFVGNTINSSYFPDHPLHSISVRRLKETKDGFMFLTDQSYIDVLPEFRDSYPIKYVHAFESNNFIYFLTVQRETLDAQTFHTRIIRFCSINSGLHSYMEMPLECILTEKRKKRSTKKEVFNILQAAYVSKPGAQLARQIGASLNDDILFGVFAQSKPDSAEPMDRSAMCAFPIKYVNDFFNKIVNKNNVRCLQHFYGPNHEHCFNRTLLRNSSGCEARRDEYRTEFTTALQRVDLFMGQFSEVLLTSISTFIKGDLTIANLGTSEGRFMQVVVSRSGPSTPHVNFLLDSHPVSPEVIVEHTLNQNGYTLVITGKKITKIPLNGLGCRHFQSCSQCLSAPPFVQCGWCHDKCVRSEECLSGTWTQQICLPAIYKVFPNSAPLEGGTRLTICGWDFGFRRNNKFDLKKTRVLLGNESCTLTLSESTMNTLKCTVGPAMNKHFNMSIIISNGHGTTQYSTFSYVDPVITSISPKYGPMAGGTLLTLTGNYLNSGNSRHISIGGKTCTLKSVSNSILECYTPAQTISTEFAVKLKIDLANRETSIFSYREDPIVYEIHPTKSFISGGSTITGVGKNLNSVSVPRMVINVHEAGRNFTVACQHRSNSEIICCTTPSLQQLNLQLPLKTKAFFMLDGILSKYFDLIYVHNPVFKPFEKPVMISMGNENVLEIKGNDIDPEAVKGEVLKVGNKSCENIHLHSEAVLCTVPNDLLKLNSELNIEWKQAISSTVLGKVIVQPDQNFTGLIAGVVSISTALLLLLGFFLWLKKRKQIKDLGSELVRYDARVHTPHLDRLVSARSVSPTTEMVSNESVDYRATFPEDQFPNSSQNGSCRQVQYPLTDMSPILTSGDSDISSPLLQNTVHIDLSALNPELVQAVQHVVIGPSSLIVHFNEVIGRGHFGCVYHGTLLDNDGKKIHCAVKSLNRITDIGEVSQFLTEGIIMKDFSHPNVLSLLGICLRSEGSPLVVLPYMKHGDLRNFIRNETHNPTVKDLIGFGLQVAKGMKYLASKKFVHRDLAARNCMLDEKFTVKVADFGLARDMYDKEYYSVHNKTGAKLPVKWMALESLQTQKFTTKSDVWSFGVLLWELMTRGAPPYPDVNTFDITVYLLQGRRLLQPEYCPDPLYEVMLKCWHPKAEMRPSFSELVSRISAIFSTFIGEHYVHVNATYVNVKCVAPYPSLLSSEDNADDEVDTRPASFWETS
T1 sequence (P08581 960-1390): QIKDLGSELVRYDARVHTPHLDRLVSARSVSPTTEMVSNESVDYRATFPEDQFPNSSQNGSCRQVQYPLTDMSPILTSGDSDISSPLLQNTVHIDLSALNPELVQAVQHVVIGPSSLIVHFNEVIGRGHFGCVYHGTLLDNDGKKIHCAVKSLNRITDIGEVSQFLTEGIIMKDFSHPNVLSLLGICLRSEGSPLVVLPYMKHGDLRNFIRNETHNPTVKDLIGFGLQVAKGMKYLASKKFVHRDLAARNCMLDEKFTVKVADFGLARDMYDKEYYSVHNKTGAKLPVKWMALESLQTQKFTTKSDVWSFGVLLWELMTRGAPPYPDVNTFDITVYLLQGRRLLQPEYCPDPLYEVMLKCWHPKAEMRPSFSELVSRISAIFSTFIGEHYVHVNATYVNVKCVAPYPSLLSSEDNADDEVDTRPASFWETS

`CCc1n[nH]c2ccc(C3C(C#N)=C(C)N4CCOCC4=C3C#N)cc12` (racemic) [Example 4, 8-(3-Ethyl-1H-indazol-5-yl)-6-methyl-1,3,4,8-tetrahydropyrido[2,1-c][1,4]oxazine-7,9-dicarbonitrile]: in assay [1], the IC50 is 23 nM.

As to `CCc1n[nH]c2ccc(C3C(C#N)=C(C)N4CCOCC4=C3C#N)cc12` (single isomer, unassigned) [Example 5, 8-(3-Ethyl-1H-indazol-5-yl)-6-methyl-1,3,4,8-tetrahydropyrido[2,1-c][1,4]oxazine-7,9-dicarbonitrile], the IC50 in assay [2] was 12 nM.

Take `CCc1n[nH]c2ccc(C3C(C#N)=C(C)N4CCOCC4=C3C#N)cc12` (single isomer, unassigned) [Example 6, 8-(3-Ethyl-1H-indazol-5-yl)-6-methyl-1,3,4,8-tetrahydropyrido[2,1-c][1,4]oxazine-7,9-dicarbonitrile]: the IC50 in assay [2] came to 88 nM.

`CC1=C(C#N)C(c2ccc3[nH]nc(C)c3c2)C(C#N)=C2COCCN12` (single isomer, unassigned) [Example 2, 6-Methyl-8-(3-methyl-1H-indazol-5-yl)-1,3,4,8-tetrahydropyrido[2,1-c][1,4]oxazine-7,9-dicarbonitrile]: the figures for the IC50 in assay [1] and in assay [2] were 1 nM and 8 nM, respectively.

Turning to `CC1=C(C#N)C(c2ccc3[nH]nc(-c4ccc(F)nc4)c3c2)C(C#N)=C2COCCN12` (stereo not shown) [Example 7, 8-[3-(6-Fluoropyridin-3-yl)-1H-indazol-5-yl]-6-methyl-1,3,4,8-tetrahydropyrido[2,1-c][1,4]-oxazine-7,9-dicarbonitrile], the IC50 in assay [1] was found to be 2 nM; in assay [2], 23 nM.
